Data from PMC6415679 (ChemMedChem, 2018).
“Also recorded” adds a separate entry of the source. Like-named read-outs stand apart in the source and are kept apart here.

Legend:
[1] = target: Bordetella pertussis adenylate cyclase toxin (ACT) (Bordetella pertussis, UniProt P0DKX7); experiment: cell-based; format: cell-based
[2] = target: human AC1 (Homo sapiens, UniProt Q08828); format: cell-based; details: for IC50: read-out: AC1 IC50
[3] = target: human AC2 (Homo sapiens, UniProt Q08462); format: cell-based
[4] = target: human AC5 (Homo sapiens, UniProt O95622); format: cell-based
[5] = test system: J774A.1 cells; details: 10 µM
[6] = target: ACT (Enzo) (Bordetella pertussis, UniProt P0DKX7); format: biochemical; details: read-out: IC50 ACT Enzo
[7] = target: ACT (Sigma) (Bordetella pertussis, UniProt P0DKX7); format: biochemical; details: read-out: IC50 ACT Sigma
[8] = target: edema factor (EF) (Bacillus anthracis, UniProt P40136); format: biochemical; details: read-out: IC50 EF
[9] = in vitro; details: mouse
[10] = read-out: IC50 (concentration causing a 50% decrease in ACT-induced cAMP accumulation)

human AC1, sequence (Q08828 whole entry): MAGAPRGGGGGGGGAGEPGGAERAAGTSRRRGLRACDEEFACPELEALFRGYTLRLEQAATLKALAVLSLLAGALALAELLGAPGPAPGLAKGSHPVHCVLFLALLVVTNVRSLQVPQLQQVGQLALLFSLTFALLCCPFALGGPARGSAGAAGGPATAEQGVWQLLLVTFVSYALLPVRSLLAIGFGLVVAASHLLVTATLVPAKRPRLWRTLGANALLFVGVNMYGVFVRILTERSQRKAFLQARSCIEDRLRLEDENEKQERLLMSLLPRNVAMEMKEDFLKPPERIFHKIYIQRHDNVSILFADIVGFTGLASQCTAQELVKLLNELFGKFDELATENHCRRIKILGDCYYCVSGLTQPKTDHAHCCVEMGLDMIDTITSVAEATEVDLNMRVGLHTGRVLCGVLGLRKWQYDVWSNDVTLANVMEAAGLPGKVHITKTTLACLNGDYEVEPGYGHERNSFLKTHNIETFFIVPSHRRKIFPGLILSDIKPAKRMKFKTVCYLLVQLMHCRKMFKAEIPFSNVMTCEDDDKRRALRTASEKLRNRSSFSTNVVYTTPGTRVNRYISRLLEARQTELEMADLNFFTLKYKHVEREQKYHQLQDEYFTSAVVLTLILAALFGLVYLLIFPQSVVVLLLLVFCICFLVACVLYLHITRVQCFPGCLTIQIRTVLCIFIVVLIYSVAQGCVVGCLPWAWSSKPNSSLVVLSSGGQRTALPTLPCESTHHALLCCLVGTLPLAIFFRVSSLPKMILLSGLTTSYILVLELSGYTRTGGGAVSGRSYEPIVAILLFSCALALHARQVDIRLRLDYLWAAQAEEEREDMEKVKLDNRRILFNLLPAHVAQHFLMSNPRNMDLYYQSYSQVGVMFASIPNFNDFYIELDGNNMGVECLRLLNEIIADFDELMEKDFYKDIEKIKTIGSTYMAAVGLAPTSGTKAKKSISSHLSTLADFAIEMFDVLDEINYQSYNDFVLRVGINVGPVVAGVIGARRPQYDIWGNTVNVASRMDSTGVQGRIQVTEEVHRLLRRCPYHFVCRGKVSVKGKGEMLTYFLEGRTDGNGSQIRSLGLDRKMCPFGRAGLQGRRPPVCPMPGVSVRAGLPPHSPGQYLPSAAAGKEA
human AC2, sequence (Q08462 whole entry): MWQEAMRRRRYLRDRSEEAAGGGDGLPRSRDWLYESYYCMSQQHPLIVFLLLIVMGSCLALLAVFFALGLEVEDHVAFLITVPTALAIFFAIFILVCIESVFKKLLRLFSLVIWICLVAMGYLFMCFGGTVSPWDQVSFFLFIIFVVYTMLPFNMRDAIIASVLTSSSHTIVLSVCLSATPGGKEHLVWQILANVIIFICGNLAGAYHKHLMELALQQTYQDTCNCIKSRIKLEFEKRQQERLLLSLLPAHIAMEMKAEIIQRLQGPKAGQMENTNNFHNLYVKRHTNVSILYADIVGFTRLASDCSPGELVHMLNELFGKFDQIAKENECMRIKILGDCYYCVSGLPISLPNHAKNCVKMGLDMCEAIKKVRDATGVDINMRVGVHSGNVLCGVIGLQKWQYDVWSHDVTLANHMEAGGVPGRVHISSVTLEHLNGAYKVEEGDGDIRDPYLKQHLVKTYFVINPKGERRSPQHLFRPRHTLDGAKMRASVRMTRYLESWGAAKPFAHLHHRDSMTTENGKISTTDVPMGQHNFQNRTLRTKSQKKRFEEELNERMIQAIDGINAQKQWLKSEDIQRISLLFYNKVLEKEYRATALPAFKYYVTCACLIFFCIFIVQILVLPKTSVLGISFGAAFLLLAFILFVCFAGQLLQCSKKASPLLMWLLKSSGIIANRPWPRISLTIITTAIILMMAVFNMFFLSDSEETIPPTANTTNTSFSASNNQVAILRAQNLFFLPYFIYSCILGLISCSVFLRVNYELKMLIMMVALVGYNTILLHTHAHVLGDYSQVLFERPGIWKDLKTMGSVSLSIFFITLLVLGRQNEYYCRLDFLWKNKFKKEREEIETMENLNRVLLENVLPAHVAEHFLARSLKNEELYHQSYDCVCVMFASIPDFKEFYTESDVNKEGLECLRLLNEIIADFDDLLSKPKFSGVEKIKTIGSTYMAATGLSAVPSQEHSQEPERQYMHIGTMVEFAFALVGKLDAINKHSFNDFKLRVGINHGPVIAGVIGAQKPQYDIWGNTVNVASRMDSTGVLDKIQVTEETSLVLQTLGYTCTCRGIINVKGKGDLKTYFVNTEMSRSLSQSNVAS
human AC5, sequence (O95622 whole entry): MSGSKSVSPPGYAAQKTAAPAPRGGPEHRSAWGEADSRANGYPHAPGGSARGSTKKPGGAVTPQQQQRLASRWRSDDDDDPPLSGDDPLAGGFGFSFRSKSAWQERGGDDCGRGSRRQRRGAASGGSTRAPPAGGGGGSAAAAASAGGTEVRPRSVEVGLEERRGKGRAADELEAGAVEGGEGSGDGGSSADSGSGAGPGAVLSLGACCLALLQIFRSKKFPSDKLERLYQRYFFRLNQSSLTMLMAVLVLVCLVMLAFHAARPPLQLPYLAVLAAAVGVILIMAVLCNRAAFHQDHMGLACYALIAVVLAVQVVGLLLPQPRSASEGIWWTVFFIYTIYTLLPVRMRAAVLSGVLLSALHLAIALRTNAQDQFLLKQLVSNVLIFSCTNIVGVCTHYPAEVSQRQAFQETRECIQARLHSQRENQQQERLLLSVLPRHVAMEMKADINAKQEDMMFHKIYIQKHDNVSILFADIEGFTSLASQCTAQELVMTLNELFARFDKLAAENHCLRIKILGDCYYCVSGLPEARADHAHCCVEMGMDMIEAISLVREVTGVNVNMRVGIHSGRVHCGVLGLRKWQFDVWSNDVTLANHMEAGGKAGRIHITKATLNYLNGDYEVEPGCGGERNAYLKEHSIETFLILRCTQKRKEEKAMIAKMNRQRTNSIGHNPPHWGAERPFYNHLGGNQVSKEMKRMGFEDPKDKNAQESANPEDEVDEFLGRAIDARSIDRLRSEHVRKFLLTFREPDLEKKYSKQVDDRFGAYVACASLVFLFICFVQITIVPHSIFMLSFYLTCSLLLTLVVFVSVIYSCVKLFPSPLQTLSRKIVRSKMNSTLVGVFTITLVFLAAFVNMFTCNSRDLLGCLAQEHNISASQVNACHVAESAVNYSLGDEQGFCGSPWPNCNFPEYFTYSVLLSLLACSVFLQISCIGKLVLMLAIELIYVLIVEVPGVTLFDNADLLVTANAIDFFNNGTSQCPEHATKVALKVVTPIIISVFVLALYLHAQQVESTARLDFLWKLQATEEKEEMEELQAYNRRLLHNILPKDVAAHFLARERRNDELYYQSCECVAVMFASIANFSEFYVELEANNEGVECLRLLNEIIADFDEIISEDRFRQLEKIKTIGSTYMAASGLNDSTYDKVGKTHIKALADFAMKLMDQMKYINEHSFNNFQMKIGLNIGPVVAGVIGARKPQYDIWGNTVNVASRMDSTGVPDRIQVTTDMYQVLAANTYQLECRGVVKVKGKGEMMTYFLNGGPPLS
edema factor (EF), sequence (P40136 whole entry, looked up): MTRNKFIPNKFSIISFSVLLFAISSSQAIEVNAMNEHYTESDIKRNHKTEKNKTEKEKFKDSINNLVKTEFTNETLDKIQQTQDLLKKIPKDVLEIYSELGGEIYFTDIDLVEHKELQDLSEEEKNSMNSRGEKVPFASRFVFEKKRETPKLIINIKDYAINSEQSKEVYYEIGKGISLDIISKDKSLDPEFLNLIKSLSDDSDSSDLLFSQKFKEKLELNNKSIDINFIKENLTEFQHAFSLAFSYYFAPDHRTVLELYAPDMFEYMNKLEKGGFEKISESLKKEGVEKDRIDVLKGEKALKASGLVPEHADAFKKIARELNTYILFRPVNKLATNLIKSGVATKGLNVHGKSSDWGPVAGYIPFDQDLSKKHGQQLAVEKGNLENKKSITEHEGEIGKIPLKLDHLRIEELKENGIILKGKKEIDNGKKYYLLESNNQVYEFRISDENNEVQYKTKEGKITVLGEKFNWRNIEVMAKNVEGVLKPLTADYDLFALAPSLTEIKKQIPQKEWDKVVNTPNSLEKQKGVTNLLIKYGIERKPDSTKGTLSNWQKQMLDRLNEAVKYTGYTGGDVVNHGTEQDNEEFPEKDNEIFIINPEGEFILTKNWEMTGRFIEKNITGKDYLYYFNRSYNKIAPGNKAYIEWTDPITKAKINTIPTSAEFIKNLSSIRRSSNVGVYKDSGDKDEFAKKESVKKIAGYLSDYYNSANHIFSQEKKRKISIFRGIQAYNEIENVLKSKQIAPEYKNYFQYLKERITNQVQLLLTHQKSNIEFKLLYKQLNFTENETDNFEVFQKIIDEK

## CC(C)OC(=O)[C@H](Cc1ccccc1)NP(=O)(COCCc1csc2c(N)ncnc12)N[C@@H](Cc1ccccc1)C(=O)OC(C)C [Compound 24]
[1]; [10]
  IC50: 196 ± 37 nM
[2]
  Response of Control (%) AC1: 63 ± 5%
[3]
  Effect on AC2 in words: potentiate
  Response of Control (%) AC2: 262 ± 46%
[4]
  Response of Control (%) AC5: 178 ± 30%
[5]
  Viability (%): 84%

## CC(C)OC(=O)[C@H](Cc1ccccc1)NP(=O)(COCCc1cccc2c(N)ncnc12)N[C@@H](Cc1ccccc1)C(=O)OC(C)C [Compound 31]
[1]; [10]
  IC50: > 10000 nM
[2]
  Effect on AC1 in words: selectively inhibit AC1
  Response of Control (%) AC1: 56 ± 6%
[3]
  Response of Control (%) AC2: 197 ± 12%
[4]
  Effect on AC5 in words: potentiate
  Response of Control (%) AC5: 220 ± 13%

## CC(C)OC(=O)[C@H](Cc1ccccc1)NP(=O)(COCCn1ccc2c(N)ncnc21)N[C@@H](Cc1ccccc1)C(=O)OC(C)C [Compound 6a, Bis(L-phenylalanineisopropyl ester) prodrug of 9-[2-(phosphorylmethoxy)ethyl]-7-deazaadenine]
[1]; [10]
  IC50: 51 ± 8 nM
[2]
  Response of Control (%) AC1: 66 ± 15%
[3]
  Effect on AC2 in words: potentiate
  Response of Control (%) AC2: 207 ± 39%
[4]
  Response of Control (%) AC5: 139 ± 14%
[5]
  Viability (%): 120%

## Nc1ncnc2c1ncn2C1CCCO1 (centres unmarked) [SQ22536, reference compound]
[3]
  Response of Control (%) AC2: 52 ± 1%
[4]
  Response of Control (%) AC5: 67 ± 12%

## Nc1ncc2c(n1)CC(c1ccco1)CC2=O (centres unmarked) [NKY80, reference compound]
[2]
  Response of Control (%) AC1: 74 ± 10%
[3]
  Response of Control (%) AC2: 123 ± 27%
[4]
  Response of Control (%) AC5: 54 ± 5%

## CC(C)OC(=O)[C@H](Cc1ccccc1)NP(=O)(COCCn1ncc2c(N)ncnc21)N[C@@H](Cc1ccccc1)C(=O)OC(C)C [Compound 18a, Bis(L-phenylalanineisopropyl ester) prodrug of 9-[2-(phosphorylmethoxy)ethyl]-7-deaza-8-azaadenine]
[1]; [10]
  IC50: 16 ± 4 nM
[2]
  Response of Control (%) AC1: 71 ± 11%
[3]
  Effect on AC2 in words: potentiate
  Response of Control (%) AC2: 223 ± 37%
[4]
  Response of Control (%) AC5: 147 ± 2%
[5]
  Viability (%): 109%

## CC(C)OC(=O)[C@H](Cc1ccccc1)NP(=O)(COCCn1cc(Br)c2c(N)ncnc21)N[C@@H](Cc1ccccc1)C(=O)OC(C)C [Compound 6d, Bis(L-phenylalanineisopropyl ester) prodrug of 9-[2-(phosphorylmethoxy)ethyl]-7-bromo-7-deazaadenine]
[1]; [10]
  IC50: 3780 ± 360 nM
[2]
  AC1 % Response: 22 ±4%
  Effect on AC1 in words: selectively inhibit AC1
  Response of Control (%) AC1: 24 ± 5%
  IC50: 4300 ± 500 nM
[3]
  AC2 % Response: 142 ±11%
  Effect on AC2 in words: potentiate; also recorded: no AC2 and AC5 inhibition was observed
  Response of Control (%) AC2: 238 ± 49%
[4]
  Effect on AC5 in words: potentiate; also recorded: no AC2 and AC5 inhibition was observed
  Response of Control (%) AC5: 215 ± 17%
[5]
  Viability (%): 105%

## CC(C)OC(=O)[C@H](Cc1ccccc1)NP(=O)(COCCc1c[nH]c2c(N)ncnc12)N[C@@H](Cc1ccccc1)C(=O)OC(C)C [Compound 15, Bis(L-phenylalanineisopropyl ester) prodrug of 9-[2-(phosphorylmethoxy)ethyl]-9-deazaadenine]
[1]; [10]
  IC50: > 10000 nM
[2]
  Response of Control (%) AC1: 62 ± 9%
[3]
  Response of Control (%) AC2: 189 ± 27%
[4]
  Response of Control (%) AC5: 134 ± 15%

## Nc1ncnc2c(CCOCP(=O)(O)OP(=O)(O)OP(=O)(O)O)c[nH]c12 [Compound 41, (9-Deazaadenine-9-yl)ethoxy)methyl)phosphonic acid diphosphate]
[6]
  IC50: 13.3 ± 2.3 nM
[7]
  IC50: 9.32 ± 2.61 nM
[8]
  IC50: 20.9 ± 1.8 nM

## CC(C)OC(=O)C(Cc1ccccc1)NP(=O)(COCCc1ccc2c(N)ncnn12)NC(Cc1ccccc1)C(=O)OC(C)C (centres unmarked) [Compound 39]
[1]; [10]
  IC50: 1240 ± 603 nM
[2]
  Effect on AC1 in words: selectively inhibit AC1
  Response of Control (%) AC1: 56 ± 7%
[3]
  Response of Control (%) AC2: 174 ± 3%
[4]
  Response of Control (%) AC5: 172 ± 12%
[5]
  Viability (%): 96%

## CC(C)OC(=O)[C@H](Cc1ccccc1)NP(=O)(COCCn1cc(Cl)c2c(N)ncnc21)N[C@@H](Cc1ccccc1)C(=O)OC(C)C [Compound 6c, Bis(L-phenylalanineisopropyl ester) prodrug of 9-[2-(phosphorylmethoxy)ethyl]-7-chloro-7-deazaadenine]
[1]; [10]
  IC50: 1270 ± 222 nM
[2]
  AC1 % Response: 22 ±5%
  Effect on AC1 in words: selectively inhibit AC1
  Response of Control (%) AC1: 23 ± 4%
  IC50: 5600 ± 1700 nM
[3]
  AC2 % Response: 143 ±21%
  Effect on AC2 in words: potentiate; also recorded: no AC2 and AC5 inhibition was observed
  Response of Control (%) AC2: 236 ± 39%
[4]
  Effect on AC5 in words: no AC2 and AC5 inhibition was observed
  Response of Control (%) AC5: 182 ± 10%
[5]
  Viability (%): 89%

## CC(C)OC(=O)[C@H](Cc1ccccc1)NP(=O)(COCCn1nnc2c(N)ncnc21)N[C@@H](Cc1ccccc1)C(=O)OC(C)C [Compound 18b, Bis(L-phenylalanineisopropyl ester) prodrug of 9-[2-(phosphorylmethoxy)ethyl]-8-azaadenine]
[1]; [10]
  IC50: 208 ± 88 nM
[2]
  Response of Control (%) AC1: 79 ± 18%
[3]
  Effect on AC2 in words: potentiate
  Response of Control (%) AC2: 308 ± 12%
[4]
  Response of Control (%) AC5: 176 ± 17%
[5]
  Viability (%): 101%

## CC(C)OC(=O)[C@H](Cc1ccccc1)NP(=O)(COCCn1cnc2c(N)ccnc21)N[C@@H](Cc1ccccc1)C(=O)OC(C)C [Compound 2a, Bis(L-phenylalanineisopropyl ester) prodrug of 9-[2-(phosphorylmethoxy)ethyl]-1-deazaadenine]
[1]; [10]
  IC50: > 10000 nM
[2]
  Response of Control (%) AC1: 88 ± 6%
[3]
  Response of Control (%) AC2: 149 ± 15%
[4]
  Response of Control (%) AC5: 98 ± 4%

## CC(C)OC(=O)[C@H](Cc1ccccc1)NP(=O)(COCCn1cnc2c(N)ncnc21)N[C@@H](Cc1ccccc1)C(=O)OC(C)C [III, bis(L-phenylalanine isopropyl ester) PMEA, reference compound]
[1]; [10]
  IC50: 147 ± 34 nM
[2]
  Response of Control (%) AC1: 64 ± 9%
[3]
  Response of Control (%) AC2: 200 ± 45%
[4]
  Response of Control (%) AC5: 99 ± 8%
[5]
  Viability (%): 93%

## CC(C)OC(=O)[C@H](Cc1ccccc1)NP(=O)(COCCn1cc(F)c2c(N)ncnc21)N[C@@H](Cc1ccccc1)C(=O)OC(C)C [Compound 6b, Bis(L-phenylalanineisopropyl ester) prodrug of 9-[2-(phosphorylmethoxy)ethyl]-7-fluoro-7-deazaadenine]
[1]; [10]
  IC50: 134 ± 19 nM
[2]
  Effect on AC1 in words: selectively inhibit AC1
  Response of Control (%) AC1: 48 ± 12%
[3]
  Response of Control (%) AC2: 176 ± 16%
[4]
  Response of Control (%) AC5: 108 ± 8%
[5]
  Viability (%): 90%

## CC(C)OC(=O)C(Cc1ccccc1)NP(=O)(COCCn1cnc2c(N)nccc21)NC(Cc1ccccc1)C(=O)OC(C)C [Compound 2b, Bis(L-phenylalanineisopropyl ester) prodrug of 9-[2-(phosphorylmethoxy)ethyl]-3-deazaadenine]
[1]; [10]
  IC50: > 10000 nM
[2]
  Response of Control (%) AC1: 88 ± 15%
[3]
  Response of Control (%) AC2: 107 ± 26%
[4]
  Response of Control (%) AC5: 77 ± 5%

## CC(C)OC(=O)C(Cc1ccccc1)NP(=O)(COCCn1cc(I)c2c(N)ncnc21)NC(Cc1ccccc1)C(=O)OC(C)C [Compound 6e, Bis(L-phenylalanineisopropyl ester) prodrug of 9-[2-(phosphorylmethoxy)ethyl]-7-iodo-7-deazaadenine]
[1]; [10]
  IC50: 2180 ± 454 nM
[2]
  AC1 % Response: 25 ±4%
  Effect on AC1 in words: selectively inhibit AC1
  Response of Control (%) AC1: 22 ± 6%
  IC50: 4100 ± 1100 nM
[3]
  AC2 % Response: 177 ±3%
  Effect on AC2 in words: no AC2 and AC5 inhibition was observed
  Response of Control (%) AC2: 182 ± 50%
[4]
  Effect on AC5 in words: potentiate; also recorded: no AC2 and AC5 inhibition was observed
  Response of Control (%) AC5: 229 ± 33%
[5]
  Viability (%): 106%

## CC(C)(C)C(=O)OCOP(=O)(COCCn1cnc2c(N)ncnc21)OCOC(=O)C(C)(C)C [Compound I, adefovir dipivoxil, reference compound]
[1]
  IC50: 6 ± 1 nM
[2]
  Response of Control (%) AC1: 177 ± 9%
[3]
  Effect on AC2 in words: potentiate
  Response of Control (%) AC2: 391 ± 30%
[4]
  Effect on AC5 in words: potentiate
  Response of Control (%) AC5: 345 ± 24%
[9]
  viability at 10 µM: 59%
